Consider 3 compounds from publication PMC11009276, “Design, synthesis, biological assessment and molecular modeling studies of novel imidazothiazole-thiazolidinone hybrids as potential anticancer and anti-inflammatory agents” (Scientific Reports, 2024).

The structures appear in SMILES notation.

For one data set, the system named is gastric mucosa of rats. Nature of the data set: Ulcerogenic activity. It is filed as in vivo, rat. The note with it: oral 0.0942 mmol/kg. How it is done: The Compounds (4a-d, 5a-b) which were found potent as anti-inflammatory agents were further screened for their ulcerogenic risk. The compounds and the standard drug were tested at an oral dose of 0.0942 mmol/kg.
Animals were divided into different groups consisting of 6 rats per group. […] The control group received 0.5% of the carboxymethylcellulose (CMC) solution. […] 24 h before the test compounds were administered. After receiving the medication, the rats were given regular food for 17 h and then sacrificed. The stomach was taken out and opened along its greater curvature before being gently cleansed by dipping it in normal saline and then washing it with distilled water. The mucosal injury/damage was examined thoroughly using a magnifying glass. The mucosal injury in each stomach was scored using the following score system: 0.5: Redness; 1.0: Spot Ulcers; 1.5: Hemorrhagic Streaks; 2.0: Ulcers > 3 but 5, 3.0: Ulcers > 5. The severity index (SI) of stomach mucosal injury was calculated as the mean score of each treated group minus the mean score of the control group.

Data set [1] relates to HEK293 human embryonic kidney cell line. Nature of the data set: MTT cytotoxicity assay, normal cell line HEK293. It is filed as cell-based. The note with it: HEK293, MTT, 72 h, normal cell line, read-out: IC50 (Mean ± SD) HEK293. How it is done: All the synthesized imidazothiazole derivatives linked with thiazolidinone moiety (4a-g and 5a-d, Fig. 4) were evaluated for their in- vitro anticancer activities against three selected human cancer cell lines namely non-small lung (A549), breast (MCF7) and colorectal (HCT116) and one normal human embryonic kidney cell line (HEK293) using the 3‐(4,5‐Dimethylthiazol‐2‐yl)-2,5‐Diphenyltetrazolium Bromide (MTT) assay method. […]. […].
Cytotoxicity study of the newly synthesized derivatives 4a-g and 5a-d was performed by MTT colorimetric assay method. […] Compounds were tested against selected cancer cell lines namely A549 (Lung), MCF-7(Breast) HCT116 (Colon), normal human embryonic kidney cell line (HEK293) and procured from National Centre for Cell Science Complex (NCCS) Pune University, India. Into a 96 well plate, cells were seeded into each well (3 × 10^3 cells/ per well), the plate were incubated for 24 h, after that the culture medium was discarded and replaced with fresh medium along with our newly synthesized test compounds in different concentration (10, 20, 40 and 80 µM) followed by incubation for 72 h. Further, the media of each well of the plates were aspirated with the addition of 100 µL MTT solution followed by incubation for the next 5 h at 37 °C. Finally, each well is treated with DMSO (100 µL) and swirled to dissolve the dark crystals of formazan. ELISA reader was used to measure the absorbance at 570 nm. The experiment was repeated three times; Graph pad prism and excel are used to calculate the IC50 values.

The nature of data set [2]: Acute oral toxicity study. Particulars: Wistar, rat, in vivo, 500 mg/kg. The protocol: Doxorubicin is used as standard drug […].
Animals (Wistar rats) procured were divided into three groups randomly, with six rats in each group. […] Group III is taken as control; all the animals were treated with 0.5 ml of sunflower oil per rat. All the animals were under observation, and after 24 h, mortality of treated animals was recorded. […] All the experiments performed were carried out with the approval of the IAEC, Jamia Hamdard, New Delhi.

Usually melting point stands for the temperature, or range, at which the solid turns liquid. One may read the IC50 as the concentration at which inhibition is half-maximal. In general, LD50 refers to the dose at which mortality reaches 50%.

Compound `CC1SC(c2c(-c3ccccc3)nc3sccn23)N(c2ccc(F)cc2)C1=O` (stereo not drawn) [Compound 4a, 3-(4-Fluorophenyl)-5-methyl-2-(6-phenylimidazo[2,1-b]thiazol-5-yl) thiazolidin-4-one] returned a melting point of 165 to 167 °C. In addition, the “Mean ulcer severity index ± SEM” value with gastric mucosa of rats is 1.167 ± 0.210. Also, in data set [1], the IC50 turned out to be 147 ± 4.3 µM.
As to `CC1SC(c2c(-c3ccccc3)nc3sccn23)N(c2ccc(Cl)cc2)C1=O` (stereo not drawn) [Compound 4b, 3-(4-Chlorophenyl)-5-methyl-2-(6-phenylimidazo[2,1-b]thiazol-5-yl) thiazolidin-4-one], the “Mean ulcer severity index ± SEM” value in the data set on gastric mucosa of rats was 0.416 ± 0.153. The LD50 at 14 days in data set [2] was greater than 500 mg/kg. Besides, the IC50 in data set [1] worked out at 101 ± 3.41 µM.
Consider `CC1SC(c2c(-c3ccccc3)nc3sccn23)N(c2ccc(Br)cc2)C1=O` (stereo not drawn) [Compound 4c, 3-(4-Bromophenyl)-5-methyl-2-(6-phenylimidazo[2,1-b]thiazol-5-yl) thiazolidin-4-one], for which, in the data set with gastric mucosa of rats, the “Mean ulcer severity index ± SEM” value was 0.500 ± 0.182. The compound also showed an LD50 at 14 days in data set [2] greater than 500 mg/kg. In data set [1], the IC50 was 96.4 ± 1.79 µM.
